#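 Step 1: Grow cells in 96-well plates. Step 2: Expose to compound for 48 hours at 5 concentrations. Step 3: Interpolate endpoints linearly; if unreached, use highest concentration. Here, GI50 denotes the concentration required for 50% inhibition of growth. TGI marks complete inhibition of growth.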
# Columns and labels:
# Experiment in all cases: NCI anticancer screen, dose series, 48 h
# NCI/ADR-RES ovarian = test system: NCI/ADR-RES ovarian
# ACHN renal = test system: ACHN renal
# A498 renal = test system: A498 renal
# HL-60(TB) leukemia = test system: HL-60(TB) leukemia
# BT-549 breast = test system: BT-549 breast
# CAKI-1 renal = test system: CAKI-1 renal
# MDA-MB-231 breast = test system: MDA-MB-231 breast
# NCI-H460 lung = test system: NCI-H460 lung
# MCF7 breast = test system: MCF7 breast
# SN12C renal = test system: SN12C renal
# HOP-92 NSCLC = test system: HOP-92 NSCLC
# SNB-19 CNS = test system: SNB-19 CNS
# 786-0 renal = test system: 786-0 renal
# EKVX NSCLC = test system: EKVX NSCLC
# SK-MEL-28 melanoma = test system: SK-MEL-28 melanoma
# HS 578T breast = test system: HS 578T breast
# U251 CNS = test system: U251 CNS
# NCI-H23 lung = test system: NCI-H23 lung
# A549 NSCLC = test system: A549 NSCLC
# MALME-3M melanoma = test system: MALME-3M melanoma
# RXF 393 renal = test system: RXF 393 renal
# HCT-116 colon = test system: HCT-116 colon
# OVCAR-3 ovarian = test system: OVCAR-3 ovarian
# UO-31 renal = test system: UO-31 renal
# SF-268 CNS = test system: SF-268 CNS
# MDA-MB-435 = test system: MDA-MB-435
# HOP-62 NSCLC = test system: HOP-62 NSCLC
# SK-MEL-2 melanoma = test system: SK-MEL-2 melanoma
# OVCAR-5 ovarian = test system: OVCAR-5 ovarian
# TK-10 renal = test system: TK-10 renal
# HT29 colon = test system: HT29 colon
# M14 melanoma = test system: M14 melanoma
# T-47D breast = test system: T-47D breast
# KM12 colon = test system: KM12 colon
# LOX IMVI melanoma = test system: LOX IMVI melanoma
# NCI-H522 lung = test system: NCI-H522 lung
# MDA-N = test system: MDA-N
# SF-539 CNS = test system: SF-539 CNS
# NCI-H226 lung = test system: NCI-H226 lung
# SF-295 CNS = test system: SF-295 CNS
# SK-OV-3 ovarian = test system: SK-OV-3 ovarian
# MOLT-4 leukemia = test system: MOLT-4 leukemia
# SW-620 colon = test system: SW-620 colon
# COLO 205 colon = test system: COLO 205 colon
# K-562 leukemia = test system: K-562 leukemia
# SK-MEL-5 melanoma = test system: SK-MEL-5 melanoma
# OVCAR-8 ovarian = test system: OVCAR-8 ovarian
# RPMI-8226 leukemia = test system: RPMI-8226 leukemia
# HCC-2998 colon = test system: HCC-2998 colon
# CCRF-CEM leukemia = test system: CCRF-CEM leukemia
# HCT-15 colon = test system: HCT-15 colon
# DU-145 prostate = test system: DU-145 prostate
# UACC-62 melanoma = test system: UACC-62 melanoma
# OVCAR-4 ovarian = test system: OVCAR-4 ovarian
# UACC-257 melanoma = test system: UACC-257 melanoma
structure (smiles),measurement,setting,value
COc1cc(/C=C2\C(=O)N(c3cccc(Cl)c3)C(c3ccccc3)S2(=O)=O)cc(OC)c1OC (stereo not drawn),TGI,NCI/ADR-RES ovarian,> 100 µM
same,TGI,ACHN renal,> 100 µM
same,TGI,A498 renal,> 100 µM
same,TGI,HL-60(TB) leukemia,> 100 µM
same,TGI,BT-549 breast,> 100 µM
same,TGI,CAKI-1 renal,> 100 µM
same,TGI,MDA-MB-231 breast,> 100 µM
same,TGI,NCI-H460 lung,> 100 µM
same,TGI,MCF7 breast,> 100 µM
same,TGI,SN12C renal,> 100 µM
same,TGI,HOP-92 NSCLC,> 100 µM
same,TGI,SNB-19 CNS,> 100 µM
same,TGI,786-0 renal,> 100 µM
same,TGI,EKVX NSCLC,> 100 µM
same,TGI,SK-MEL-28 melanoma,> 100 µM
same,TGI,HS 578T breast,> 100 µM
same,TGI,U251 CNS,> 100 µM
same,TGI,NCI-H23 lung,> 100 µM
same,TGI,A549 NSCLC,> 100 µM
same,TGI,MALME-3M melanoma,> 100 µM
same,TGI,RXF 393 renal,> 100 µM
same,TGI,HCT-116 colon,> 100 µM
same,TGI,OVCAR-3 ovarian,> 100 µM
same,TGI,UO-31 renal,> 100 µM
same,TGI,SF-268 CNS,> 100 µM
same,TGI,MDA-MB-435,> 100 µM
same,TGI,HOP-62 NSCLC,> 100 µM
same,TGI,SK-MEL-2 melanoma,> 100 µM
same,TGI,OVCAR-5 ovarian,> 100 µM
same,TGI,TK-10 renal,> 100 µM
same,TGI,HT29 colon,> 100 µM
same,TGI,M14 melanoma,> 100 µM
same,TGI,T-47D breast,> 100 µM
same,TGI,KM12 colon,> 100 µM
same,TGI,LOX IMVI melanoma,97.2 µM
same,TGI,NCI-H522 lung,55.8 µM
same,TGI,MDA-N,46.6 µM
same,TGI,SF-539 CNS,> 100 µM
same,TGI,NCI-H226 lung,> 100 µM
same,TGI,SF-295 CNS,> 100 µM
same,TGI,SK-OV-3 ovarian,> 100 µM
same,TGI,MOLT-4 leukemia,98.8 µM
same,TGI,SW-620 colon,> 100 µM
same,TGI,COLO 205 colon,> 100 µM
same,TGI,K-562 leukemia,> 100 µM
same,TGI,SK-MEL-5 melanoma,> 100 µM
same,TGI,OVCAR-8 ovarian,> 100 µM
same,TGI,RPMI-8226 leukemia,80.1 µM
same,TGI,HCC-2998 colon,> 100 µM
same,TGI,CCRF-CEM leukemia,71.8 µM
same,TGI,HCT-15 colon,> 100 µM
same,TGI,DU-145 prostate,> 100 µM
same,TGI,UACC-62 melanoma,> 100 µM
same,TGI,OVCAR-4 ovarian,> 100 µM
same,TGI,UACC-257 melanoma,> 100 µM
COc1cc2cc(c1Cl)N(C)C(=O)CC(OC(=O)C(C)C)C1(C)OC1C(C)C1CC(O)(NC(=O)O1)C(OC)/C=C/C=C(C)C2 (stereo not drawn),GI50,ACHN renal,0.0126 µM
same,TGI,A498 renal,36.7 µM
same,TGI,BT-549 breast,82.9 µM
same,TGI,CAKI-1 renal,19.1 µM
same,TGI,SN12C renal,46.7 µM
same,TGI,786-0 renal,30.6 µM
same,TGI,EKVX NSCLC,16.6 µM
same,GI50,SK-MEL-28 melanoma,17.6 µM
same,TGI,NCI-H23 lung,48.5 µM
same,TGI,A549 NSCLC,33.1 µM
same,TGI,MALME-3M melanoma,25.1 µM
same,TGI,HCT-116 colon,13.8 µM
same,TGI,UO-31 renal,18.9 µM
same,TGI,SF-268 CNS,15.4 µM
same,TGI,HOP-62 NSCLC,62 µM
same,TGI,OVCAR-5 ovarian,38.6 µM
same,TGI,TK-10 renal,36.4 µM
same,GI50,T-47D breast,29.1 µM
same,TGI,MDA-N,1.41 µM
same,TGI,SK-OV-3 ovarian,53.4 µM
same,TGI,RPMI-8226 leukemia,12.9 µM
same,TGI,OVCAR-4 ovarian,40.8 µM
same,TGI,UACC-257 melanoma,23.8 µM

# — PubChem BioAssay (NCI)
